# Experimental data: ChEMBL document CHEMBL4602617, “Discovery and optimization of heteroaryl piperazines as potent and selective PI3Kδ inhibitors” (Bioorg Med Chem Lett, 2020)
# What was measured:
# [1] = molecular target: Serine/threonine-protein kinase Sgk2 (Homo sapiens, UniProt Q9HBY8); test: Inhibition of recombinant human GST-tagged SGK2 catalytic domain (54 to 427 residues) expressed in baculovirus expression system using serine/threonine-6 peptide as substrate incubated for 60 mins in presence of ATP by Z'-LYTE assay
# Chain of Serine/threonine-protein kinase Sgk2 (Q9HBY8 whole entry, the tested form may be a part): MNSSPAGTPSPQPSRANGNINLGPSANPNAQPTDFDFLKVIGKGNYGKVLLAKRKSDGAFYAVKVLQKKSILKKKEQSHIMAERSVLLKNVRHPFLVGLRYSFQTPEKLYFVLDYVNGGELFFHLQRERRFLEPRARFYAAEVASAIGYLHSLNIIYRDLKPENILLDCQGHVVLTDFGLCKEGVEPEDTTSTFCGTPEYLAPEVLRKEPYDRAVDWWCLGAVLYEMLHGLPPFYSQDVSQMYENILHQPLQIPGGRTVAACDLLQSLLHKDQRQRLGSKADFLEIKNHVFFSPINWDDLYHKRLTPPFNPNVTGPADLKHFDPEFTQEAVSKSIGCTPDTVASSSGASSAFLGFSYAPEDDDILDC
# [2] = molecular target: Platelet-derived growth factor receptor alpha (Homo sapiens, UniProt P16234, V561D); test: Inhibition of recombinant human GST-tagged PDGFRalpha V561D mutant cytoplasmic domain expressed in baculovirus expression system using tyrosine-4 peptide as substrate incubated for 60 mins in presence of ATP by Z'-LYTE assay
# Chain of Platelet-derived growth factor receptor alpha (Homo sapiens, UniProt P16234, V561D) (P16234 24-1089 V561D limits assumed): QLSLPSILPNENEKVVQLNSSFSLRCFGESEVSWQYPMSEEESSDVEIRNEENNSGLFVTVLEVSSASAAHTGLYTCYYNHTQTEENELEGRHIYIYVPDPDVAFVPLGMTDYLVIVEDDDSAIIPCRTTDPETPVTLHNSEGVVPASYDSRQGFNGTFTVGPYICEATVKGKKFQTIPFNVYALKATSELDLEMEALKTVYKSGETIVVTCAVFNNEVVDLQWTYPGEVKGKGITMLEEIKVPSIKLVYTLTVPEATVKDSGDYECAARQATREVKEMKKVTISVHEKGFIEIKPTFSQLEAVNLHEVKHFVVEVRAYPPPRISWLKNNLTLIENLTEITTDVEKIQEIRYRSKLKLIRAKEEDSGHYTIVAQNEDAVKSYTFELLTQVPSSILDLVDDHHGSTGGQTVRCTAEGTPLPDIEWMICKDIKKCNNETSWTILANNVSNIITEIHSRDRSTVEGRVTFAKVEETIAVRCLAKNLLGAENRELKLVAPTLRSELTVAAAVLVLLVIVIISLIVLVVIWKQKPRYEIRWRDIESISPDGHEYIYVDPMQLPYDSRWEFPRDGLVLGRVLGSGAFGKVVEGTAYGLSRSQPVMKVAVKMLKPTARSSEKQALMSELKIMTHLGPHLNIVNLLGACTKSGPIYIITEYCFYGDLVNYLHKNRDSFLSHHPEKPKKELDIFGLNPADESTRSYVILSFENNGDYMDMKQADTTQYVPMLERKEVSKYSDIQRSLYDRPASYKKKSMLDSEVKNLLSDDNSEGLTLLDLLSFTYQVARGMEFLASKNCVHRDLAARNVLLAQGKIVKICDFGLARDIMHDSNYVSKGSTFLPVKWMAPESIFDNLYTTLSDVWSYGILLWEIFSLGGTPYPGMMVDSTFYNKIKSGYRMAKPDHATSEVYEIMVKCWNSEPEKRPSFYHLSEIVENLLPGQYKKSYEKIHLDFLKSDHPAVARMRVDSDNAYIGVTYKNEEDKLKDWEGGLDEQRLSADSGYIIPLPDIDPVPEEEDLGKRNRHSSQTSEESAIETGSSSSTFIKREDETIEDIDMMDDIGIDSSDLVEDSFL
# [3] = molecular target: 3-phosphoinositide-dependent protein kinase 1 (Homo sapiens, UniProt O15530); test: Inhibition of full length recombinant His-tagged human PDK1 expressed in baculovirus expression system using Ser/Thr 07 as substrate after 1 hr in presence of ATP by Z'LYTE assay
# Chain of 3-phosphoinositide-dependent protein kinase 1 (O15530 whole entry, the tested form may be a part): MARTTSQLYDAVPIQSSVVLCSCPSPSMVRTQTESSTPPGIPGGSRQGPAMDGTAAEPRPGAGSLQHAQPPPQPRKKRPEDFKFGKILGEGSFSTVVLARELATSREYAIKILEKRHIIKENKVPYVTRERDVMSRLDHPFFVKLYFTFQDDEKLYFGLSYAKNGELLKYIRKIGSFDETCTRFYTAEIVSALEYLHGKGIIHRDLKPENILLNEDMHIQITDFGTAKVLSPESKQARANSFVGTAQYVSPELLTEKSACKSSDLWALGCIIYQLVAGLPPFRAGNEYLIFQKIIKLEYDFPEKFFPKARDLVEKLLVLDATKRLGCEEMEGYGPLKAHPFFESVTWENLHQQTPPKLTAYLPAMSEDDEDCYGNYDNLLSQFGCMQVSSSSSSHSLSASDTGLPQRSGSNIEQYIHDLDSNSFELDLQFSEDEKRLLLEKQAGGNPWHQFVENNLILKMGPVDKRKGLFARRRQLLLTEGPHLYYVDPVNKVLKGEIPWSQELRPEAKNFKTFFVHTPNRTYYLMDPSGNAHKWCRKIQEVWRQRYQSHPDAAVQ
# [4] = molecular target: Peroxisome proliferator-activated receptor gamma (Homo sapiens) (UniProt P37231); test: Displacement of [3H]rosiglitazone from […] human recombinant PPARgamma LBD domain expressed in insect cells at 10 uM measured after 24 hrs by radiometric scintillation analysis relative to control
# [5] = molecular target: Ribosomal protein S6 kinase alpha-5 (Homo sapiens, UniProt O75582); test: Inhibition of recombinant full length human GST-tagged RPS6KA5 expressed in baculovirus expression system using ser/Thr01 peptide as substrate incubated for 60 mins in presence of ATP by Z'-LYTE assay
# [6] = molecular target: Death-associated protein kinase 1 (Homo sapiens, UniProt P53355); test: Inhibition of recombinant human GST-tagged DAPK1 catalytic domain (1 to 363 residues) expressed in baculovirus expression system using ZIPtide peptide as substrate incubated for 60 mins in presence of ATP by Adapta assay
# [7] = Volume of drug distribution in dog at 0.5 mg/kg, iv or 1 mg/kg, po; type: ADME, organism-based, Canis lupus familiaris; settings: in vivo
# [8] = tested on: Atrial natriuretic peptide receptor 1 (Cavia porcellus); test: Inhibition of guniea pig ANF at 10 uM relative to control
# [9] = molecular target: Protein kinase C delta type (Homo sapiens, UniProt Q05655); test: Inhibition of recombinant full length human GST-tagged PRKCD expressed in insect expression system using serine/threonine-7 peptide as substrate incubated for 60 mins in presence of ATP by Z'-LYTE assay
# [10] = molecular target: Calcium/calmodulin-dependent protein kinase type IV (Homo sapiens, UniProt Q16566); test: Inhibition of recombinant full length human full length GST-tagged CAMK4 expressed in Escherichia coli expression system using serine/threonine-13 peptide as substrate incubated for 60 mins in presence of ATP by Z'-LYTE assay
# [11] = molecular target: Serine/threonine-protein kinase PAK 5 (Homo sapiens, UniProt Q9P286); test: Inhibition of recombinant human His-tagged PAK7 catalytic domain (425 to 719 residues) expressed in baculovirus expression system using serine/threonine-20 peptide as substrate incubated for 60 mins in presence of ATP by Z'-LYTE assay
# [12] = molecular target: Mitogen-activated protein kinase 1 (Homo sapiens, UniProt P28482); test: Inhibition of recombinant full length human GST-tagged ERK2 expressed in Escherichia coli expression system using serine/threonine-3 peptide as substrate incubated for 60 mins in presence of ATP by Z'-LYTE assay
# Ephrin type-A receptor 5 = Ephrin type-A receptor 5 (Homo sapiens, UniProt P54756); test: Inhibition of recombinant human GST-tagged EPHA5 cytoplasmic domain expressed in baculovirus expression system using tyrosine-01 peptide as substrate incubated for 60 mins in presence of ATP by Z'-Lyte assay
# Chain of Ephrin type-A receptor 5 (P54756 whole entry, the tested form may be a part): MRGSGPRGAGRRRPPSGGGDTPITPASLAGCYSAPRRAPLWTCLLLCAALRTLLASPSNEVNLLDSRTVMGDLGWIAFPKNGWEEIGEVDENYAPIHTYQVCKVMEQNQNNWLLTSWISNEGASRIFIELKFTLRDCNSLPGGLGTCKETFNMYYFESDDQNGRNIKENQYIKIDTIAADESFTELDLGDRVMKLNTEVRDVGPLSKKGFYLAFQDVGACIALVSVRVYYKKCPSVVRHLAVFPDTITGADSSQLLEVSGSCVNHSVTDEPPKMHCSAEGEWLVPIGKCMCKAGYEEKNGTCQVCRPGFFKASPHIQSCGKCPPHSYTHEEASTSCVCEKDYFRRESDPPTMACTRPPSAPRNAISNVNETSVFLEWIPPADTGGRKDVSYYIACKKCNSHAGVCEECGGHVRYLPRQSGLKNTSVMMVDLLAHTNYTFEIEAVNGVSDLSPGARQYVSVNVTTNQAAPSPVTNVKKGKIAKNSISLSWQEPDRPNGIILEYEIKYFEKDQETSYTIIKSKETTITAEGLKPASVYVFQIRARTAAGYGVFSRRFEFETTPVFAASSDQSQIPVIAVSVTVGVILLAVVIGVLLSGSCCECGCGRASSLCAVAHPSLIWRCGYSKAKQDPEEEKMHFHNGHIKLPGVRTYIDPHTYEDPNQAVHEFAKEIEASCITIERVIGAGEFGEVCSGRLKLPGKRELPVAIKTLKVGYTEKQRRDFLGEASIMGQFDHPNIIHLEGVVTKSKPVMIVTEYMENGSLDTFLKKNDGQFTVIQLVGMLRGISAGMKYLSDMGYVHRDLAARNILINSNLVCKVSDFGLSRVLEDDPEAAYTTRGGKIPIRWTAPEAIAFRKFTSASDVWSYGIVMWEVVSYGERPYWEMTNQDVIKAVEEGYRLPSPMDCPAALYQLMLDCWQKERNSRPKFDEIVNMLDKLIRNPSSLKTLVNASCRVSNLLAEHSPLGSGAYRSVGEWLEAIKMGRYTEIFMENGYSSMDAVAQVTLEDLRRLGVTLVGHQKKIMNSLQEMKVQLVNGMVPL
# [13] = molecular target: Mitogen-activated protein kinase 14 (Homo sapiens, UniProt Q16539); test: Inhibition of recombinant full length GST-tagged human inactive MAPK14 expressed in Escherichia coli using Ser/Thr 04 as substrate after 1 hr in presence of ATP by Z'LYTE assay
# [14] = molecular target: Cathepsin G (Homo sapiens) (UniProt P08311); test: Inhibition of endogenous human cathepsin G at 10 uM using Suc-Ala-Ala-Pro-Phe-AMC as substrate after 30 mins by spectrophotometric analysis relative to control
# Chain of Cathepsin G (Homo sapiens) (P08311 whole entry, the tested form may be a part): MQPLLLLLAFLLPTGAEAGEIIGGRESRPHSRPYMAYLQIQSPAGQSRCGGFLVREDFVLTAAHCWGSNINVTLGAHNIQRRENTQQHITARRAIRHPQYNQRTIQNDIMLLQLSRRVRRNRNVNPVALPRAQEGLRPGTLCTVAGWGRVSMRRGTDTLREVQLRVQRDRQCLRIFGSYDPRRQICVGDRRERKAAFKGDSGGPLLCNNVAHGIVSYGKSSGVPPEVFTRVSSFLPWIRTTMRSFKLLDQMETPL
# [15] = molecular target: Platelet-derived growth factor receptor alpha (Homo sapiens, UniProt P16234, T674I); test: Inhibition of recombinant human GST-tagged PDGFRalpha cytoplasmic domain (550 to 1089 residues) harboring T674I mutant expressed in baculovirus expression system using tyrosine-4 peptide as substrate incubated for 60 mins in presence of ATP by Z'-LYTE assay
# Chain of Platelet-derived growth factor receptor alpha (Homo sapiens, UniProt P16234, T674I) (P16234 24-1089 T674I limits assumed): as the sequence (P16234 24-1089 V561D limits assumed) above, with D538V, T651I counted along it
# Mesocricetus auratus = species on record: Mesocricetus auratus; test: Displacement of [3H]glyburide from KATP receptor in HIT-T15 Syrian hamster pancreatic B cell membranes at 10 uM after 120 mins by radiometric scintillation analysis relative to control
# [16] = molecular target: Dual specificity tyrosine-phosphorylation-regulated kinase 1B (Homo sapiens, UniProt Q9Y463); test: Inhibition of recombinant full length human GST-tagged DYRK1B expressed in baculovirus expression system using serine/threonine-18 peptide as substrate incubated for 60 mins in presence of ATP by Z'-LYTE assay
# [17] = molecular target: Histamine H4 receptor (Homo sapiens) (UniProt Q9H3N8); test: Inhibition of human histamine H4 receptor at 10 uM relative to control
# Chain of Histamine H4 receptor (Homo sapiens) (Q9H3N8 whole entry): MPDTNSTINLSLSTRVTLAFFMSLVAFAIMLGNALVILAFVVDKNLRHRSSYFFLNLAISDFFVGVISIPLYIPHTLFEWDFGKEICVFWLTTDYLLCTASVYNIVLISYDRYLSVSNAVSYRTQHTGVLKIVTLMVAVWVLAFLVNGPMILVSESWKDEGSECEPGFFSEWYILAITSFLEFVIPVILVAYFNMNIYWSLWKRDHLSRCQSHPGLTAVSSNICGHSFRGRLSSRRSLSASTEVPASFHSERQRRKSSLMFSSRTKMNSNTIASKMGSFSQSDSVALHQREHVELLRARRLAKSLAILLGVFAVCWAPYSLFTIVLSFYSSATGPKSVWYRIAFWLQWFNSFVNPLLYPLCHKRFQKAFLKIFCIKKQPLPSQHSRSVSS
# [18] = molecular target: 5-hydroxytryptamine receptor 1B (Rattus norvegicus) (UniProt P28564); test: Displacement of [125I]cyanopindolol from 5HT1B receptor in Wistar rat cerebral cortical membranes at 10 uM measured after 90 mins by radiometric scintillation analysis relative to control
# [19] = molecular target: Ribosomal protein S6 kinase alpha-3 (Homo sapiens, UniProt P51812); test: Inhibition of recombinant full length human His-tagged RSK2 expressed in baculovirus expression system using serine/threonine-6 peptide as substrate incubated for 60 mins in presence of ATP by Z'-LYTE assay
# Chain of Ribosomal protein S6 kinase alpha-3 (P51812 whole entry, the tested form may be a part): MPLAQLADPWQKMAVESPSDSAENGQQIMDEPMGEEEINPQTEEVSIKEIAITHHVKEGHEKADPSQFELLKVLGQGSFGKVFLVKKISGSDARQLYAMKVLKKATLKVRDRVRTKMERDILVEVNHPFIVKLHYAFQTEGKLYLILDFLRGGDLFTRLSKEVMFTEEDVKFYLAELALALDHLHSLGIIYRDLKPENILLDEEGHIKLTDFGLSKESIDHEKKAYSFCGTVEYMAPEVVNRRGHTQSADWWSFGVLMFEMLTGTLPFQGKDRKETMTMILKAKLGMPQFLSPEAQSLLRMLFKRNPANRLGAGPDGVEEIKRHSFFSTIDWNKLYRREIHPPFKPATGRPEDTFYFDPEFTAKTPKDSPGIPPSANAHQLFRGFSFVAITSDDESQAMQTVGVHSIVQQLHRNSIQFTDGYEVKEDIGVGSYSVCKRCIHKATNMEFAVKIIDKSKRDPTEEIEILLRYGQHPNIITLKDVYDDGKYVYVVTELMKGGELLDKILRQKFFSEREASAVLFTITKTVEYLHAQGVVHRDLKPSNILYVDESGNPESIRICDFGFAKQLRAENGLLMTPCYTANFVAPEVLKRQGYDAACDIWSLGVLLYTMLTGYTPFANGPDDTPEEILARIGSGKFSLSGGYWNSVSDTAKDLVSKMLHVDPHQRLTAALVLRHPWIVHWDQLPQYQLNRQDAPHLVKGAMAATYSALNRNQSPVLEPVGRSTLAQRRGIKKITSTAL
# [20] = molecular target: Tyrosine-protein kinase ABL1 (Homo sapiens, UniProt P00519, T315I); test: Inhibition of recombinant full length human His-tagged ABL1 T315I mutant cytoplasmic domain expressed in baculovirus expression system using tyrosine-2 peptide as substrate incubated for 60 mins in presence of ATP by Z'-LYTE assay
# [21] = Unbound clearance in rat at 0.5 mg/kg, iv or 1 mg/kg, po; type: ADME, organism-based; settings: in vivo
# [22] = molecular target: Rho-associated protein kinase 1 (Homo sapiens, UniProt Q13464); test: Inhibition of recombinant human GST-tagged ROCK1 catalytic domain expressed in baculovirus expression system using serine/threonine-7 peptide as substrate incubated for 60 mins in presence of ATP by Z'-LYTE assay
# Aurora kinase C = Aurora kinase C (Homo sapiens, UniProt Q9UQB9); test: Inhibition of recombinant full length GST-tagged human AURKC expressed in baculovirus expression system using Ser/Thr-19 peptide as substrate incubated for 60 mins in presence of ATP by Z'-LYTE assay
# Chain of Aurora kinase C (Q9UQB9 whole entry): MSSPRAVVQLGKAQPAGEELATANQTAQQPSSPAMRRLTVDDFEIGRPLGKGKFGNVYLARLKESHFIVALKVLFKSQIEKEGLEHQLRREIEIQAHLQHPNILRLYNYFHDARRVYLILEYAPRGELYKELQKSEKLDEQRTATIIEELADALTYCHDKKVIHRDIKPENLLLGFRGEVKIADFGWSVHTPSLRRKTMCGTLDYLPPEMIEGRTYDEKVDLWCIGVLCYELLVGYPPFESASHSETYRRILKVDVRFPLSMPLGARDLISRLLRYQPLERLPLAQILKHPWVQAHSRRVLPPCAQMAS
# [23] = molecular target: Glutamate NMDA receptor (Rattus norvegicus) (UniProt P35439+Q00959+Q00960+Q00961+Q62645+Q8VHN2+Q9R1M7); test: Displacement of [3H]CGP-39653 from glutamate NMDA receptor in Wistar rat cerebral cortical membranes at 10 uM incubated for 20 mins by radiometric scintillation analysis relative to control
smiles,measurement,setting,value
C[C@@H]1C[C@H]1C(=O)N1CCN(c2cnc(C#N)c(-c3cnn(C)c3)n2)C[C@H]1C,IC50,[1],> 100 µM
same,IC50,[2],> 100 µM
same,IC50,[3],> 100 µM
same,inhibition,[4],7%
same,IC50,[5],> 100 µM
same,IC50,[6],> 100 µM
same,Vd,[7],1.1 L/kg
same,inhibition,[8],8%
same,IC50,[9],> 100 µM
same,IC50,[10],> 100 µM
same,IC50,[11],> 100 µM
same,IC50,[12],> 100 µM
same,IC50,Ephrin type-A receptor 5,> 100 µM
same,IC50,[13],> 100 µM
same,inhibition,[14],6%
same,IC50,[15],> 100 µM
same,inhibition,Mesocricetus auratus,-1%
same,IC50,[16],> 100 µM
same,inhibition,[17],1%
same,inhibition,[18],-5%
same,IC50,[19],29.1 µM
same,IC50,[20],> 100 µM
same,CL free,[21],187 mL/min/kg
same,IC50,[22],> 100 µM
same,IC50,Aurora kinase C,> 100 µM
same,inhibition,[23],-1%
